From PubChem BioAssay (NCI)
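GI50 marks 50% less growth. The concentration for full growth arrest is given as TGI.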

Key:
Experiment in all cases: NCI-60 cell line screen, 384-well format
MDA-MB-231 breast = tested on: MDA-MB-231 breast
HT29 colon = tested on: HT29 colon
UACC-257 melanoma = tested on: UACC-257 melanoma
A498 renal = tested on: A498 renal
SR leukemia = tested on: SR leukemia
IGROV1 ovarian = tested on: IGROV1 ovarian
EKVX NSCLC = tested on: EKVX NSCLC
NCI-H522 lung = tested on: NCI-H522 lung
MALME-3M melanoma = tested on: MALME-3M melanoma
HL-60(TB) leukemia = tested on: HL-60(TB) leukemia
OVCAR-4 ovarian = tested on: OVCAR-4 ovarian
UO-31 renal = tested on: UO-31 renal
OVCAR-3 ovarian = tested on: OVCAR-3 ovarian
SN12C renal = tested on: SN12C renal
CAKI-1 renal = tested on: CAKI-1 renal
BT-549 breast = tested on: BT-549 breast
MCF7 breast = tested on: MCF7 breast
A549 NSCLC = tested on: A549 NSCLC
T-47D breast = tested on: T-47D breast
NCI-H322M lung = tested on: NCI-H322M lung
OVCAR-8 ovarian = tested on: OVCAR-8 ovarian
PC-3 prostate = tested on: PC-3 prostate
SNB-75 CNS = tested on: SNB-75 CNS
SF-539 CNS = tested on: SF-539 CNS
OVCAR-5 ovarian = tested on: OVCAR-5 ovarian
MDA-MB-435 melanoma = tested on: MDA-MB-435 melanoma
SNB-19 CNS = tested on: SNB-19 CNS
KM12 colon = tested on: KM12 colon
HCC-2998 colon = tested on: HCC-2998 colon
NCI-H23 lung = tested on: NCI-H23 lung
786-0 renal = tested on: 786-0 renal
SK-OV-3 ovarian = tested on: SK-OV-3 ovarian
DU-145 prostate = tested on: DU-145 prostate
NCI-H226 lung = tested on: NCI-H226 lung
SK-MEL-5 melanoma = tested on: SK-MEL-5 melanoma
M14 melanoma = tested on: M14 melanoma
SW-620 colon = tested on: SW-620 colon
U251 glioblastoma = tested on: U251 glioblastoma
HOP-62 NSCLC = tested on: HOP-62 NSCLC
HCT-116 colon = tested on: HCT-116 colon
RXF 393 renal = tested on: RXF 393 renal
SF-268 CNS = tested on: SF-268 CNS
HCT-15 colon = tested on: HCT-15 colon
CCRF-CEM leukemia = tested on: CCRF-CEM leukemia
HOP-92 NSCLC = tested on: HOP-92 NSCLC
UACC-62 melanoma = tested on: UACC-62 melanoma
RPMI-8226 leukemia = tested on: RPMI-8226 leukemia
NCI/ADR-RES ovarian = tested on: NCI/ADR-RES ovarian
LOX IMVI melanoma = tested on: LOX IMVI melanoma
MOLT-4 leukemia = tested on: MOLT-4 leukemia
SK-MEL-28 melanoma = tested on: SK-MEL-28 melanoma
NCI-H460 NSCLC = tested on: NCI-H460 NSCLC
ACHN renal = tested on: ACHN renal
MDA-MB-468 breast = tested on: MDA-MB-468 breast
COLO 205 colon = tested on: COLO 205 colon
SF-295 CNS = tested on: SF-295 CNS
K-562 leukemia = tested on: K-562 leukemia
TK-10 renal = tested on: TK-10 renal
SK-MEL-2 melanoma = tested on: SK-MEL-2 melanoma

C[C@H]1CN(C2COC2)CCN1c1ccc(Nc2cc(-c3ccnc(N4CCn5c(cc6c5CC(C)(C)C6)C4=O)c3CO)cn(C)c2=O)nc1
GI50 (MDA-MB-231 breast): 6.46 µM | TGI (MDA-MB-231 breast): 20.4 µM | GI50 (HT29 colon): 20.5 µM | TGI (HT29 colon): > 50.1 µM | GI50 (UACC-257 melanoma): 16.4 µM | TGI (UACC-257 melanoma): 34.5 µM | GI50 (A498 renal): 14.3 µM | TGI (A498 renal): 28.2 µM | GI50 (SR leukemia): 5.31 µM | TGI (SR leukemia): 18.4 µM | GI50 (IGROV1 ovarian): 15.5 µM | TGI (IGROV1 ovarian): 33.9 µM | GI50 (EKVX NSCLC): 76.9 µM | TGI (EKVX NSCLC): > 100 µM | GI50 (NCI-H522 lung): 12.7 µM | TGI (NCI-H522 lung): 37.2 µM | GI50 (MALME-3M melanoma): 34.8 µM | TGI (MALME-3M melanoma): > 54 µM | GI50 (HL-60(TB) leukemia): 12.9 µM | TGI (HL-60(TB) leukemia): 25.9 µM | GI50 (OVCAR-4 ovarian): 13.3 µM | TGI (OVCAR-4 ovarian): > 51.6 µM | GI50 (UO-31 renal): 16.2 µM | TGI (UO-31 renal): 29.8 µM | GI50 (OVCAR-3 ovarian): 10.7 µM | TGI (OVCAR-3 ovarian): 24.7 µM | GI50 (SN12C renal): 20.2 µM | TGI (SN12C renal): 44.5 µM | GI50 (CAKI-1 renal): 17.8 µM | TGI (CAKI-1 renal): > 48.1 µM | GI50 (BT-549 breast): 18.9 µM | TGI (BT-549 breast): 40.9 µM | GI50 (MCF7 breast): 14.1 µM | TGI (MCF7 breast): > 44 µM | GI50 (A549 NSCLC): 18.5 µM | TGI (A549 NSCLC): > 54.3 µM | GI50 (T-47D breast): 20.3 µM | TGI (T-47D breast): > 59.5 µM | GI50 (NCI-H322M lung): 28.6 µM | TGI (NCI-H322M lung): > 72.8 µM | GI50 (OVCAR-8 ovarian): 20.9 µM | TGI (OVCAR-8 ovarian): > 60.7 µM | GI50 (PC-3 prostate): 28.1 µM | TGI (PC-3 prostate): 90.1 µM | GI50 (SNB-75 CNS): 30.5 µM | TGI (SNB-75 CNS): 81.6 µM | GI50 (SF-539 CNS): 25.5 µM | TGI (SF-539 CNS): > 53.4 µM | GI50 (OVCAR-5 ovarian): 24.1 µM | TGI (OVCAR-5 ovarian): > 67.1 µM | GI50 (MDA-MB-435 melanoma): 26.2 µM | TGI (MDA-MB-435 melanoma): > 55.9 µM | GI50 (SNB-19 CNS): 29.8 µM | TGI (SNB-19 CNS): > 85.4 µM | GI50 (KM12 colon): 26.2 µM | TGI (KM12 colon): > 58.9 µM | GI50 (HCC-2998 colon): 3.62 µM | TGI (HCC-2998 colon): 14.5 µM | GI50 (NCI-H23 lung): 33.5 µM | TGI (NCI-H23 lung): > 78.7 µM | GI50 ([…]-0 renal): 21.8 µM | TGI (786-0 renal): > 52.2 µM | GI50 (SK-OV-3 ovarian): 16.3 µM | TGI (SK-OV-3 ovarian): 35.7 µM | GI50 (DU-145 prostate): 30.8 µM | TGI (DU-145 prostate): 97.1 µM | GI50 (NCI-H226 lung): 11.8 µM | TGI (NCI-H226 lung): 28.4 µM | GI50 (SK-MEL-5 melanoma): 27.8 µM | TGI (SK-MEL-5 melanoma): > 48.2 µM | GI50 (M14 melanoma): 35 µM | TGI (M14 melanoma): > 54.7 µM | GI50 (SW-620 colon): 17.5 µM | TGI (SW-620 colon): 38.1 µM | GI50 (U251 glioblastoma): 41.4 µM | TGI (U251 glioblastoma): > 100 µM | GI50 (HOP-62 NSCLC): 17.8 µM | TGI (HOP-62 NSCLC): > 48.1 µM | GI50 (HCT-116 colon): 20.6 µM | TGI (HCT-116 colon): > 52.4 µM | GI50 (RXF 393 renal): 3.89 µM | TGI (RXF 393 renal): 26.8 µM | GI50 (SF-268 CNS): 16.8 µM | TGI (SF-268 CNS): 35.4 µM | GI50 (HCT-15 colon): 28.3 µM | TGI (HCT-15 colon): > 55.3 µM | GI50 (CCRF-CEM leukemia): 3.36 µM | TGI (CCRF-CEM leukemia): 13.4 µM | GI50 (HOP-92 NSCLC): 1.15 µM | TGI (HOP-92 NSCLC): 6.86 µM | GI50 (UACC-62 melanoma): 14.6 µM | TGI (UACC-62 melanoma): > 54.6 µM | GI50 (RPMI-8226 leukemia): 0.86 µM | TGI (RPMI-8226 leukemia): 2.55 µM | GI50 (NCI/ADR-RES ovarian): 20.8 µM | TGI (NCI/ADR-RES ovarian): 55.9 µM | GI50 (LOX IMVI melanoma): 17.7 µM | TGI (LOX IMVI melanoma): 31.7 µM | GI50 (MOLT-4 leukemia): 0.731 µM | TGI (MOLT-4 leukemia): 1.93 µM | GI50 (SK-MEL-28 melanoma): > 36.9 µM | TGI (SK-MEL-28 melanoma): > 53 µM | GI50 (NCI-H460 NSCLC): 37.7 µM | TGI (NCI-H460 NSCLC): > 100 µM | GI50 (ACHN renal): 19.9 µM | TGI (ACHN renal): > 54.2 µM | GI50 (MDA-MB-468 breast): 14.5 µM | TGI (MDA-MB-468 breast): 32.8 µM | GI50 (COLO 205 colon): 19.8 µM | TGI (COLO 205 colon): 39.8 µM | GI50 (SF-295 CNS): 35 µM | TGI (SF-295 CNS): > 60.1 µM | GI50 (K-562 leukemia): 20.6 µM | TGI (K-562 leukemia): > 53.8 µM | GI50 (TK-10 renal): 17 µM | TGI (TK-10 renal): 32.8 µM | GI50 (SK-MEL-2 melanoma): 4.87 µM | TGI (SK-MEL-2 melanoma): 24.5 µM
